Common to all, as to assay: cell-based
Set-up in all cases: GCaMP6 calcium fluorescence in stable HEK293 OR+ORCO lines; peak dF normalised to 50 uM VUAA1 (=1)

One test addresses T1, Drosophila OR85b (Drosophila melanogaster, UniProt Q9VHQ7).
T1 construct: expressed in transfected cells
T1 sequence (Q9VHQ7 1-390): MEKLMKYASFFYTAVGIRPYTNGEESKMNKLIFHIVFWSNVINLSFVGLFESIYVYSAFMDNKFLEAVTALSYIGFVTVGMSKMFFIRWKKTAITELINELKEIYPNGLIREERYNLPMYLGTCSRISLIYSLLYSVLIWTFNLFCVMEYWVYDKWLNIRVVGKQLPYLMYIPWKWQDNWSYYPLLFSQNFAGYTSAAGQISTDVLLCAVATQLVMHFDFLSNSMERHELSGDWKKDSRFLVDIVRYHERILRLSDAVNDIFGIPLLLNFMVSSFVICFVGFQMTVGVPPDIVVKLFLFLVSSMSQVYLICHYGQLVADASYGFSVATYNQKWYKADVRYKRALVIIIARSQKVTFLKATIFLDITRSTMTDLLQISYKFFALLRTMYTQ
T1 sequence (Q9VNB5 1-486 partner): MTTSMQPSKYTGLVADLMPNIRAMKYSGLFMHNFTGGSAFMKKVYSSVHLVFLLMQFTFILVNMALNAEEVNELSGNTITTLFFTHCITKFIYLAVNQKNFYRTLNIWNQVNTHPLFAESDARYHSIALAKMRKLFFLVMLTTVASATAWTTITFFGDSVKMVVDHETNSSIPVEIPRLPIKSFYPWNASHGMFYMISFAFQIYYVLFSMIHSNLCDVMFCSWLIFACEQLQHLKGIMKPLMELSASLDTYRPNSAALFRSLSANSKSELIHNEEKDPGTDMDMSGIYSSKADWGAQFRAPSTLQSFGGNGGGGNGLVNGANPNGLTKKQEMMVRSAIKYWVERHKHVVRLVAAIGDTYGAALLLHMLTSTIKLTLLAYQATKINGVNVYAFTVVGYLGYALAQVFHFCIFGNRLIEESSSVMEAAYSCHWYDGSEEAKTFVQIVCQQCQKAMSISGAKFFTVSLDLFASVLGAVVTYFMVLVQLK
The note with it: relative to 50 uM VUAA1 response, below 0.05 set to 0; for activity at 1 µM / activity at 100 µM / activity at 10 µM: HEK293, read-out: % activation; for % activation: agonist. The method, then: (§1) Twelve thousand to 18,000 cells were plated into each well of a black wall, transparent bottom 384-well microplate (Greiner) 48 h or 72 h before the measurements and were simultaneously treated with 1 μg/mL doxycycline. […] The plate has 24 columns, thus we could record responses in up to eight different cell lines in each plate. On the day of the experiment, the growth medium was replaced with 20 µL assay buffer/well (140 mM NaCl, 5 mM KCl, 2 mM CaCl2, 1 mM MgCl2, 5 mM HEPES-Na, 20 mM glucose, pH 7.3, 340 mOsm). […] Baseline fluorescence (F0) was recorded for 5 s, after which 7 µL VOC buffer (140 mM NaCl, 5 mM KCl, 2 mM CaCl2, 1 mM MgCl2, 5 mM HEPES-Na, 31 mM glucose, 0.1% DMSO, pH 7.3, 340 mOsm) was injected into each well in one row and the fluorescence response was recorded for an additional 30 s, at a rate of one read/sec. VOC solutions (VOC buffer with 4× concentration of the final measured VOC concentration, 9 µL/well was injected) were measured on the same wells in a second round with the same protocol. Each individual concentration of a specific VOC sample was recorded in three wells for the same cell line on the same microplate. The raw data were exported in xls file format, F0 and FMAX values, and the fluorescence intensity changes (∆F) were calculated in Excel (Microsoft) (Supplementary file Data summary.xlsx) using the following equation: ΔF=FMAX-F0/F0 (see also Fig. 1C). On each plate, we recorded the response of each cell line to 50 µM VUAA1. The average of these ∆F values of each cell line were used to calculate the VUAA1-normalized values for the rest of the plate, by dividing VOC response ∆F values by the average VUAA1 response ∆F value of the corresponding OR cell line. Each VOC-OR combination was measured three times as tec The recorded FMAX, F0, ∆F, VUAA1-normalized ∆F values, as well as the OR name, the name of the tested sample, and the final concentration for each well were copied into supplementary file Data summary.xlsx, that was used to summarize all the plates recorded. Here, the averages of the measurements were calculated for each receptor-VOC-concentration combination. […] Each VOC was measured at 1, 10, and 100 µM final concentration on each receptor. VUAA1-normalized response was calculated as described in methods.

Another test addresses T2, Drosophila OR49b (Drosophila melanogaster, UniProt Q9V6H2).
T2 construct: expressed in transfected cells
T2 sequence (Q9V6H2 1-375): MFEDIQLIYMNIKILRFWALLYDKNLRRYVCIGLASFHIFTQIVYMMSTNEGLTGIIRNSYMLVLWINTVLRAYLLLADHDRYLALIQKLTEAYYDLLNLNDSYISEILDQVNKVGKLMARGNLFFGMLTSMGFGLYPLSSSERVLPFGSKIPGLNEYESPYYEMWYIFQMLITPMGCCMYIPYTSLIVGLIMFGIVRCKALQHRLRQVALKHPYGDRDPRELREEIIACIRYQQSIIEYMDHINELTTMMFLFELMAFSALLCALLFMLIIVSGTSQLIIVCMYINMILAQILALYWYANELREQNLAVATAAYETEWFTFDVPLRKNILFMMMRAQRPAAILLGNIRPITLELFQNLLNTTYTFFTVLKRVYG
T2 sequence (Q9VNB5 1-486 partner): T1 sequence (Q9VNB5 1-486 partner)
The settings on record: HEK293; relative to 50 uM VUAA1 response; below 0.05 set to 0; read-out: % activation. On the procedure: as §1

A further test addresses T3, Drosophila OR10a (Drosophila melanogaster, UniProt Q9VYZ1).
T3 construct: expressed in transfected cells
T3 sequence (Q9VYZ1 1-406): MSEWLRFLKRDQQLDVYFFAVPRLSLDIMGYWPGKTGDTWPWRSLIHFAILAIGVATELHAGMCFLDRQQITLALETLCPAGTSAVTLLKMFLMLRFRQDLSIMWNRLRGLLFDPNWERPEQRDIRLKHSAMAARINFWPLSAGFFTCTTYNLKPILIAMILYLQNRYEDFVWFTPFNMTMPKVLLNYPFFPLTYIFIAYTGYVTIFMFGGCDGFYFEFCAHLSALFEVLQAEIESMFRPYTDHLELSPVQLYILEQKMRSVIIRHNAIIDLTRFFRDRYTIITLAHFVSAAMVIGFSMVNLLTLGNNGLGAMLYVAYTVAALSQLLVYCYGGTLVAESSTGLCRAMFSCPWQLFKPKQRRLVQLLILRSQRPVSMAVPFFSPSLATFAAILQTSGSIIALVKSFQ
T3 sequence (Q9VNB5 1-486 partner): T1 sequence (Q9VNB5 1-486 partner)
The note with it: relative to 50 uM VUAA1 response, below 0.05 set to 0; for activity at 1 µM / activity at 10 µM / activity at 100 µM: HEK293, read-out: % activation; for % activation: agonist. The method, then:
as §1

In the case of `Cc1ccccc1C` [o-xylene], at Drosophila OR85b, the activity at 1 µM was found to be 8.04% and the activity at 100 µM stood at 8.27%.

With `C=C1CCC2(C(C)C)CC12` (stereo not shown) [sabinene], on Drosophila OR85b, the activity at 1 µM is 6.47% and the activity at 100 µM stood at 8.7%.

In the case of `Cc1ccc(C)cc1` [p-xylene], at Drosophila OR85b, the activity at 10 µM turned out to be 15.2% and the activity at 100 µM worked out at 6.07%.

Turning to `C=C1[C@H]2CC[C@@H]3[C@H]2C(C)(C)CCC[C@]13C` [(+)-longifolene], at Drosophila OR49b, the activity at 1 µM worked out at 7.75%, the activity at 10 µM amounted to 0% and the activity at 100 µM amounted to 0%. Further, on Drosophila OR85b, the activity at 1 µM amounted to 8.34%, the activity at 10 µM came to 10.9% and the activity at 100 µM was 0%. Also, on Drosophila OR10a, the activity at 1 µM turned out to be 8.31%, the activity at 10 µM was determined as 5.37% and the activity at 100 µM was determined as 0%.

On to `C=C(C)[C@H]1CC=C(C)CC1` [limonene], for which the “% activation” value at Drosophila OR85b (10 µM, 10 / OR85b) stood at 0.08814%; at Drosophila OR85b (100 µM, 100 / OR85b), 0.06443%; at Drosophila OR85b (1 / OR85b, 1 µM) it was 0.07022%; on Drosophila OR10a (10 µM, 10 / OR10a), 0%; at Drosophila OR10a (100 µM, 100 / OR10a), 0.05729%.

With `CC/C=C\CCOC(C)=O` [Z-3-hexenyl acetate], the activity at 1 µM on Drosophila OR85b is 14.5%.

Consider `CCCCCCCCCCCCCC` [tetradecane], for which, at Drosophila OR49b, the activity at 1 µM came to 6.86% and the activity at 10 µM came out at 5.2%. In addition, on Drosophila OR85b, the activity at 1 µM worked out at 9.72% and the activity at 10 µM turned out to be 8.44%.

Turning to `CC1=CCC[C@@]2(C)[C@@H]3CC[C@]12CC3(C)C` [(−)-α-neoclovene], on Drosophila OR10a, the activity at 10 µM amounted to 13.1% and the activity at 100 µM worked out at 12.4%.

On to `CCCCCOC(C)=O` [pentyl acetate], for which, on Drosophila OR49b, the activity at 1 µM turned out to be 7.95% and the activity at 100 µM was determined as 6.1%.

For `C=C(C)C1CCC2(C)OC2C1` (single isomer, unassigned; (+)) [(+)-limonene oxide], at Drosophila OR49b, the activity at 1 µM was 0%, the activity at 10 µM amounted to 0% and the activity at 100 µM came out at 0%. For the same compound, at Drosophila OR85b, the activity at 1 µM came out at 0%, the activity at 10 µM amounted to 0% and the activity at 100 µM stood at 0%. At Drosophila OR10a, the activity at 1 µM was 0%, the activity at 10 µM amounted to 0% and the activity at 100 µM is 0%.

With `Cc1ccc(C(C)C)cc1` [p-cymene], at Drosophila OR85b, the activity at 10 µM was determined as 11.7% and the activity at 100 µM came to 9.05%.

For the compound `CCCOC(C)=O` [propyl acetate], the activity at 1 µM on Drosophila OR85b turned out to be 5.38%.

With `COC(=O)c1ccccc1` [methyl benzoate], the activity at 1 µM at Drosophila OR49b came to 13.4%.

As to `OCCc1ccccc1` [phenethyl alcohol], on Drosophila OR49b, the activity at 100 µM stood at 9.32%. At Drosophila OR85b, the activity at 1 µM was 9.88% and the activity at 10 µM came to 7.58%.

For the compound `Cc1cccc(C)c1` [m-xylene], on Drosophila OR85b, the activity at 100 µM was found to be 8.8%.

Take `C=C1CC[C@@]23C[C@@H]1C(C)(C)[C@@H]2CC[C@H]3C` [(+)-beta-cedrene]: on Drosophila OR49b, the activity at 1 µM is 0%, the activity at 10 µM came to 0% and the activity at 100 µM is 0%. At Drosophila OR85b, the activity at 1 µM was 0%, the activity at 10 µM came to 0% and the activity at 100 µM was 0%. Moreover, on Drosophila OR10a, the activity at 1 µM was found to be 0%, the activity at 10 µM came to 0% and the activity at 100 µM worked out at 0%.

Turning to `C=CC(C)(O)CCC=C(C)C` (stereo not shown) [linalool], on Drosophila OR85b, the activity at 100 µM is 6.3%.

Take `C=C(C)[C@H]1CC=C(C)CC1` [(R)-(+)-limonene]: the activity at 1 µM on Drosophila OR49b and on Drosophila OR10a was 0% in each case. The activity at 10 µM on Drosophila OR49b amounted to 0%. The activity at 100 µM on Drosophila OR49b stood at 0%. Further, the “% activation” value on Drosophila OR85b (10 µM, 10 / OR85b) is given as 0%; on Drosophila OR85b (100 µM, 100 / OR85b), 0%; on Drosophila OR85b (1 / OR85b, 1 µM), 0%; on Drosophila OR10a (10 µM, 10 / OR10a), 0.1196%.
